Reference: patent US20220218827A1, “DELIVERY OF THERAPEUTIC COMPOUNDS WITH IRON OXIDE NANOPARTICLES” (Memorial Sloan Kettering Cancer Center, priority 2012, published 2022)

Key:
PC3 tumors = assay: Tumor growth in nude mice bearing PC3 tumors; format: in vivo; details: versus control animals
Method: Nude, male mice (n=10) bearing PC3 tumors on their flanks were treated on day 0, day 2 and day 6 with 100 μι, either doxorubicin alone or doxorubi tin-loaded Feraheme®, both at a final doxorubicin concentration of 0.28 mM. Changes in tumor size were evaluated with a microcaliper, and at the end of the 8-day study the mice were euthanized, according to the Institutional Animal Care and Use Committee guidelines. • Data Analysis.
Specifically, the mice were treated with equal concentrations of the drug on day 0, 2 and 6, and tumor growth was determined with microcalipers. Control animals were treated with 100 μι, of 10% DMSO-containing PBS to match the DMSO content of the free doxorubicin injection, since the drug was dissolved in DMSO and diluted to the desired concentration in PBS. On day 6 and 8, the tumors were measured, and the change in tumor growth was determined by comparing the volume of tumors from treated animals with those of control ones.

[1] = system: human prostate adenocarcinoma cells (LNCaP); assay: LNCaP cell viability, Alamar Blue method; format: cell-based; details: 48 h, [Doxorubicin]final=7.5 μM, free or intercalated drug, read-out: reduction in cell viability
Method: Cell viability and in vivo studies. LNCaP cells were seeded on black-walled, clear bottom 96-well plates at a cell density of 10,000 cells per well, supplemented with 100 iL 10% FBS-containing RPMI medium. […] Controls included cells incubated with unloaded nanoparticles or DMSO, corresponding to the free drug's final solvent concentration. Subsequently, the old medium was aspirated, and cell viability was assessed via the Alamar Blue method (Invitrogen). Briefly, the cells were supplemented with 10%-alamar-blue-containing medium (10% FBS-containing RPMI), followed by 3 h incubation in a humidified incubator (37° C., 5% CO2) and recording of fluorescence emission (λ ? =565 nm) with the SpectraMax M5 plate reader. […] Experiments were performed in triplicate unless otherwise stated, with the results are presented as mean±SEM.
Cell viability and in vivo studies. […] Subsequently, the old medium was aspirated, and cell viability was assessed via the Alamar Blue method (Invitrogen). Briefly, the cells were supplemented with 10%-alamar-blue-containing medium (10% FBS-containing RPMI), followed by 3 h incubation in a humidified incubator (37° C., 5% CO2) and recording of fluorescence emission ? ran, λειλ=585 nm) with the SpectraMax M5 plate reader.

COc1cccc2c1C(=O)c1c(O)c3c(c(O)c1C2=O)C[C@@](O)(C(=O)CO)C[C@@H]3O[C@H]1C[C@H](N)[C@H](O)[C@H](C)O1 [doxorubicin]
suppression of tumor growth after three injections (PC3 tumors; iv day 0, 2 and 6, measured day 8, 0.28 mM doxorubicin): 34%
tumor regression after two injections (PC3 tumors; iv day 0 and 2, measured day 6, 100 μL of 0.28 mM doxorubicin): some tumor growth
cytotoxicity at […] [1]: 60%
